According to PubChem BioAssay AID248 (DTP/NCI, 2004):
Several values for one entry are separate records, joined by “and”; a condition that tells them apart may be missing. Equal entries are not always repeated. Toxic doses and inconclusive results are not listed. No stated cut-off is given here; in the data, active means T/C of 150% or more; inactive means T/C below 125%.

Test system: L1210 leukemia ip in BDF1 mice, survival T/C
Experiment: NCI In Vivo Anticancer Drug Screen. Data for tumor model L1210 Leukemia (intraperitoneal) in B6D2F1 (BDF1) mice
Settings: endpoint: mean survival time, higher = longer survival
Outline: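 Value reflects the ratio of survival in compound-treated mice to survival in vehicle-treated controls, with both groups carrying the same transplanted tumor.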

[1] = dose: 100.0 mg/kg/injection, schedule: Q04DX002 (ip), vehicle: Klucel (hydroxypropylcellulose) (HPC)
[2] = dose: 200.0 mg/kg/injection, schedule: Q04DX002 (ip), vehicle: Klucel (hydroxypropylcellulose) (HPC)
[3] = dose: 400.0 mg/kg/injection, schedule: Q04DX002 (ip), vehicle: Klucel (hydroxypropylcellulose) (HPC)
[4] = dose: 100.0 mg/kg/injection, schedule: Q01DX009 (ip), vehicle: saline with Tween-80
[5] = dose: 100.0 mg/kg/injection, schedule: Q01DX009 (ip), vehicle: Klucel (hydroxypropylcellulose) (HPC)
[6] = dose: 200.0 mg/kg/injection, schedule: Q01DX009 (ip), vehicle: Klucel (hydroxypropylcellulose) (HPC)
[7] = dose: 400.0 mg/kg/injection, schedule: Q01DX009 (ip), vehicle: Klucel (hydroxypropylcellulose) (HPC)
[8] = dose: 100.0 mg/kg/injection, schedule: Q04DX003 (ip), vehicle: saline with Tween-80
[9] = dose: 200.0 mg/kg/injection, schedule: Q04DX003 (ip), vehicle: saline with Tween-80
[10] = dose: 400.0 mg/kg/injection, schedule: Q04DX003 (ip), vehicle: saline with Tween-80
[11] = dose: 100.0 mg/kg/injection, schedule: Q04DX002 (ip), vehicle: saline with Tween-80
[12] = dose: 200.0 mg/kg/injection, schedule: Q04DX002 (ip), vehicle: saline with Tween-80
[13] = dose: 400.0 mg/kg/injection, schedule: Q04DX002 (ip), vehicle: saline with Tween-80
[14] = dose: 100.0 mg/kg/injection, schedule: Q01DX001 (ip), vehicle: saline with Tween-80
[15] = dose: 200.0 mg/kg/injection, schedule: Q01DX001 (ip), vehicle: saline with Tween-80
[16] = dose: 400.0 mg/kg/injection, schedule: Q01DX001 (ip), vehicle: saline with Tween-80
[17] = dose: 100.0 mg/kg/injection, schedule: Q01DX001 (ip), vehicle: carboxymethylcellulose (CMC)
[18] = dose: 200.0 mg/kg/injection, schedule: Q01DX001 (ip), vehicle: carboxymethylcellulose (CMC)
[19] = dose: 400.0 mg/kg/injection, schedule: Q01DX001 (ip), vehicle: carboxymethylcellulose (CMC)

Measured: T/C

FC(F)(F)c1ccc2c(c1)N(CCCN1CCN(CCCl)CC1)c1ccccc1S2
inactive: dose: 0.78 mg/kg/injection, schedule: Q01DX009 (ip), vehicle: saline 101 % of control | dose: 1.56 mg/kg/injection, schedule: Q01DX009 (ip), vehicle: saline 107 % of control | dose: 3.12 mg/kg/injection, schedule: Q01DX009 (ip), vehicle: saline 107 % of control | dose: 6.25 mg/kg/injection, schedule: Q04DX003 (ip), vehicle: saline 96 % of control | dose: 12.5 mg/kg/injection, schedule: Q01DX009 (ip), vehicle: saline 110 % of control | dose: 12.5 mg/kg/injection, schedule: Q04DX003 (ip), vehicle: saline 97 % of control | dose: 25.0 mg/kg/injection, schedule: Q04DX003 (ip), vehicle: saline 110 % of control | dose: 50.0 mg/kg/injection, schedule: Q04DX003 (ip), vehicle: saline 89 % of control

Cc1ccc(/C=C/[N+](=O)[O-])cc1
inactive: dose: 6.25 mg/kg/injection, schedule: Q01DX009 (ip), vehicle: saline sonified 100 % of control | dose: 6.25 mg/kg/injection, schedule: Q04DX003 (ip), vehicle: Klucel (hydroxypropylcellulose) (HPC) 97 % of control | dose: 12.5 mg/kg/injection, schedule: Q01DX009 (ip), vehicle: saline sonified 101 % of control | dose: 12.5 mg/kg/injection, schedule: Q04DX003 (ip), vehicle: Klucel (hydroxypropylcellulose) (HPC) 97 % of control | dose: 25.0 mg/kg/injection, schedule: Q01DX009 (ip), vehicle: saline sonified 101 % of control | dose: 25.0 mg/kg/injection, schedule: Q04DX003 (ip), vehicle: Klucel (hydroxypropylcellulose) (HPC) 93 % of control

CC(C)(O)C#CC(C)(C)O
inactive: dose: 100.0 mg/kg/injection, schedule: Q01DX009 (ip), vehicle: saline 115 % of control | dose: 200.0 mg/kg/injection, schedule: Q01DX009 (ip), vehicle: saline 110 % of control | dose: 400.0 mg/kg/injection, schedule: Q01DX009 (ip), vehicle: saline 110 % of control

CCCCCCC(=O)C1OC1CCCCCCCCC(=O)O (stereo not drawn)
inactive: dose: 100.0 mg/kg/injection, schedule: Q04DX002 (ip), vehicle: other 112 % of control | dose: 400.0 mg/kg/injection, schedule: Q04DX002 (ip), vehicle: other 94 % of control

Cc1ccc(-n2ccnc2)c(N=Cc2ccc(N(CCCl)CCCl)cc2C)c1
inactive: [1] 98 % of control | [2] 102 % of control | [3] 124 % of control

CCCCNC(=S)NC1CC(O[C@H]2C[C@](O)(C(C)=O)Cc3c(O)c4c(c(O)c32)C(=O)c2c(OC)cccc2C4=O)OC(C)C1O (stereo partly drawn)
inactive: [4] 94 % of control

N#CC(C#N)=Cc1ccc(O)cc1
inactive: dose: 5.0 mg/kg/injection, schedule: Q01DX001 (ip), vehicle: saline 105 % of control | dose: 10.0 mg/kg/injection, schedule: Q01DX001 (ip), vehicle: saline 105 % of control | dose: 20.0 mg/kg/injection, schedule: Q01DX001 (ip), vehicle: saline 92 % of control | dose: 40.0 mg/kg/injection, schedule: Q01DX001 (ip), vehicle: saline 103 % of control | dose: 80.0 mg/kg/injection, schedule: Q01DX001 (ip), vehicle: saline 97 % of control

CC1(C(Cl)(Cl)Cl)C=CC(=O)C(Cl)=C1 (stereo not drawn)
inactive: [5] 100 % of control | [6] 103 % of control | [7] 97 % of control

COc1ccc(CCNC(=O)Cc2ccccc2[N+](=O)[O-])cc1OC
inactive: dose: 10.0 mg/kg/injection, schedule: Q01DX001 (ip), vehicle: carboxymethylcellulose (CMC) 100 % of control | dose: 20.0 mg/kg/injection, schedule: Q01DX001 (ip), vehicle: carboxymethylcellulose (CMC) 100 % of control | dose: 40.0 mg/kg/injection, schedule: Q01DX001 (ip), vehicle: carboxymethylcellulose (CMC) 96 % of control | dose: 80.0 mg/kg/injection, schedule: Q01DX001 (ip), vehicle: carboxymethylcellulose (CMC) 96 % of control

CCN(CC)CCN(C(=S)Nc1ccccc1)c1ccccc1
inactive: dose: 25.0 mg/kg/injection, schedule: Q01DX009 (ip), vehicle: Klucel (hydroxypropylcellulose) (HPC) 103 % of control | dose: 50.0 mg/kg/injection, schedule: Q01DX009 (ip), vehicle: Klucel (hydroxypropylcellulose) (HPC) 102 % of control | [5] 96 % of control

CC(C)(C)N1CC(C(=O)O)C1
inactive: dose: 100.0 mg/kg/injection, schedule: Q01DX001 (ip), vehicle: saline 97 % of control | dose: 200.0 mg/kg/injection, schedule: Q01DX001 (ip), vehicle: saline 103 % of control | dose: 400.0 mg/kg/injection, schedule: Q01DX001 (ip), vehicle: saline 97 % of control

C(=NCC1CCC(CN=Cc2ccco2)CC1)c1ccco1 (stereo not drawn)
inactive: [4] 94 % of control | [8] 109 % of control | dose: 200.0 mg/kg/injection, schedule: Q01DX009 (ip), vehicle: saline with Tween-80 98 % of control | [9] 102 % of control | dose: 400.0 mg/kg/injection, schedule: Q01DX009 (ip), vehicle: saline with Tween-80 100 % of control | [10] 106 % of control

CCN(CC)CCCNC(C)CCCN(CC)CC (stereo not drawn)
inactive: dose: 50.0 mg/kg/injection, schedule: Q01DX009 (ip), vehicle: water 106 % of control | dose: 100.0 mg/kg/injection, schedule: Q01DX009 (ip), vehicle: water 97 % of control and 107 % of control | dose: 100.0 mg/kg/injection, schedule: Q04DX003 (ip), vehicle: water 98 % of control | dose: 200.0 mg/kg/injection, schedule: Q01DX009 (ip), vehicle: water 101 % of control and 103 % of control | dose: 200.0 mg/kg/injection, schedule: Q04DX003 (ip), vehicle: water 98 % of control | dose: 400.0 mg/kg/injection, schedule: Q01DX009 (ip), vehicle: water 93 % of control

CSCC1OC(n2nnc3c(N)ncnc32)C(O)C1O (stereo not drawn)
inactive: dose: 100.0 mg/kg/injection, schedule: Q01DX001 (ip), vehicle: Klucel (hydroxypropylcellulose) (HPC) 100 % of control | dose: 200.0 mg/kg/injection, schedule: Q01DX001 (ip), vehicle: Klucel (hydroxypropylcellulose) (HPC) 103 % of control

CCC(=O)/C=C/c1ccccc1OC
inactive: [11] 97 % of control | [12] 105 % of control | [13] 105 % of control

CC1CCCC(CN=Cc2cc(Cl)ccc2O)[N-]1.CC1CCCC(CN=Cc2cc(Cl)ccc2O)[N-]1.[Ni+2] (stereo not drawn)
inactive: [8] 96 % of control | [9] 90 % of control | [10] 91 % of control

Oc1ccc2ccccc2c1/C=C1/C=Nc2ccccc21
inactive: [11] 88 % of control | [12] 88 % of control | [13] 103 % of control

CC(=O)Nc1ccc(O)c2ccccc12
inactive: [1] 92 % of control | [2] 89 % of control | [3] 99 % of control

C1CCCN(/N=N/N2CCCCCC2)CC1
inactive: [14] 100 % of control | [15] 92 % of control | [16] 100 % of control

COC1OC(CN=[N+]=[N-])C(N=[N+]=[N-])C(OS(C)(=O)=O)C1OS(C)(=O)=O (stereo not drawn)
inactive: [8] 92 % of control | [9] 90 % of control | [10] 94 % of control

COc1ccc2ccccc2c1Br
inactive: [17] 98 % of control | [18] 98 % of control | [19] 98 % of control

O=c1oc2ccc(Cl)cc2n1CN1CCOCC1
inactive: [17] 96 % of control | [18] 96 % of control | [19] 88 % of control

O=C(N/N=C/c1ccccc1[N+](=O)[O-])c1ccccc1
inactive: [5] 94 % of control | [6] 94 % of control | [7] 97 % of control

CC(=O)NC1C(OCc2ccccc2)OC(COCc2ccccc2)C(OCc2ccccc2)C1OCc1ccccc1 (stereo not drawn)
inactive: [14] 86 % of control | [15] 94 % of control | [16] 94 % of control

O=C(O)c1c(O)cc(=O)oc1-c1ccccc1Cl
inactive: dose: 75.0 mg/kg/injection, schedule: Q01DX001 (ip), vehicle: saline 97 % of control | dose: 150.0 mg/kg/injection, schedule: Q01DX001 (ip), vehicle: saline 101 % of control | dose: 300.0 mg/kg/injection, schedule: Q01DX001 (ip), vehicle: saline 96 % of control
